Measurements from patent publication EP0753512B1, “N,N,-diethyl-8,8-dipropyl-2-azaspiro[4.5]decane-2-propanamin] dimaleate salt” (AnorMED Inc, priority 1995, dated 1997).

Columns and labels:
[1] = Relative solubilities in water, HCl and methanol; assay type: physicochemical
[2] = Hygroscopicity: rate of moisture absorption, Integrated Microbalance System; assay type: physicochemical; conditions: for % Weight Gain (Moisture Absorption): 25 °C; for hygroscopicity: statement in words, upon storage
Method: The rate of moisture absorption of Compound B and Compound C were tested individually in an Integrated Microbalance System, MODEL MB 300 G (VTI Corporation, Hialeah, Florida) using the accompanying Software Manual. Table 2(a) [table]

[3] = organic solvent or mixture, Solvent: methanol

Which results are given for `CCCC1(CCC)CCC2(CCN(CCCN(CC)CC)C2)CC1.Cl.Cl` [Compound B, N,N-diethyl-8,8-dipropyl-2-azaspiro[4.5]decane-2-propanamine dihydrochloride, reference compound]?
solubility ([1]; Solvent: 0.1% HCl): > 100 mg/mL; solubility ([1]; Solvent: Water): > 100 mg/mL; solubility [1, 3]: > 100 mg/mL; % Weight Gain (Moisture Absorption) ([2]; 0 % relative humidity): 0%; % Weight Gain (Moisture Absorption) ([2]; 10 % relative humidity): 0.20%; % Weight Gain (Moisture Absorption) ([2]; 15 % relative humidity): 1.81%; % Weight Gain (Moisture Absorption) ([2]; 20 % relative humidity): 2.17%; % Weight Gain (Moisture Absorption) ([2]; 25 % relative humidity): 2.84%; % Weight Gain (Moisture Absorption) ([2]; 30 % relative humidity): 3.74%; % Weight Gain (Moisture Absorption) ([2]; 35 % relative humidity): 3.15%; % Weight Gain (Moisture Absorption) ([2]; 40 % relative humidity): 3.30%; % Weight Gain (Moisture Absorption) ([2]; 45 % relative humidity): 4.74%; % Weight Gain (Moisture Absorption) ([2]; 50 % relative humidity): 5.49%; % Weight Gain (Moisture Absorption) ([2]; 55 % relative humidity): 9.07%; % Weight Gain (Moisture Absorption) ([2]; 60 % relative humidity): 9.26%; % Weight Gain (Moisture Absorption) ([2]; 65 % relative humidity): 9.50%; % Weight Gain (Moisture Absorption) ([2]; 70 % relative humidity): 15.47%; % Weight Gain (Moisture Absorption) ([2]; 75 % relative humidity): 31.30%; % Weight Gain (Moisture Absorption) ([2]; 80 % relative humidity): 36.53%; % Weight Gain (Moisture Absorption) ([2]; 85 % relative humidity): 44.16%; hygroscopicity [2]: hygroscopic

Which results are given for `CCCC1(CCC)CCC2(CCN(CCCN(CC)CC)C2)CC1.O=C(O)/C=C\C(=O)O.O=C(O)/C=C\C(=O)O` [Compound C, N,N-diethyl-8,8-dipropyl-2-azaspiro[4.5]decane-2-propanamine dimaleate]?
solubility ([1]; Solvent: 0.1% HCl): > 100 mg/mL; solubility ([1]; Solvent: Water): > 100 mg/mL; solubility [1, 3]: > 100 mg/mL; % Weight Gain (Moisture Absorption) ([2]; 0 % relative humidity): 0%; % Weight Gain (Moisture Absorption) ([2]; 10 % relative humidity): -0.21%; % Weight Gain (Moisture Absorption) ([2]; 15 % relative humidity): -0.18%; % Weight Gain (Moisture Absorption) ([2]; 20 % relative humidity): -0.08%; % Weight Gain (Moisture Absorption) ([2]; 25 % relative humidity): -0.12%; % Weight Gain (Moisture Absorption) ([2]; 30 % relative humidity): -0.08%; % Weight Gain (Moisture Absorption) ([2]; 35 % relative humidity): -0.08%; % Weight Gain (Moisture Absorption) ([2]; 40 % relative humidity): -0.08%; % Weight Gain (Moisture Absorption) ([2]; 45 % relative humidity): -0.05%; % Weight Gain (Moisture Absorption) ([2]; 50 % relative humidity): -0.04%; % Weight Gain (Moisture Absorption) ([2]; 55 % relative humidity): 0.04%; % Weight Gain (Moisture Absorption) ([2]; 60 % relative humidity): 0.1%; % Weight Gain (Moisture Absorption) ([2]; 65 % relative humidity): 0.18%; % Weight Gain (Moisture Absorption) ([2]; 70 % relative humidity): 0.41%; % Weight Gain (Moisture Absorption) ([2]; 75 % relative humidity): 0.56%; % Weight Gain (Moisture Absorption) ([2]; 80 % relative humidity): 0.89%; % Weight Gain (Moisture Absorption) ([2]; 85 % relative humidity): 1.70%; % Weight Gain (Moisture Absorption) ([2]; 90 % relative humidity): 5.37%; % Weight Gain (Moisture Absorption) ([2]; 95 % relative humidity): 42.88%; hygroscopicity [2]: far less hygroscopic
